Values of other authors in patent publication US20170119791A1, “METHODS AND COMPOSITIONS FOR DERMATOLOGICAL USE COMPRSING BETAMETHASONE AND BIOPOLYMERS” (APEX LABORATORIES PRIVATE LIMITED, priority 2015, published 2017).
Like-named read-outs stand apart in the source and are kept apart here.

Solubility (in acetone)	Solubility (in alcohol)	Solubility (in water)	Solubility (in benzene)	Solubility (in chloroform)	Solubility (in ether)	SMILES
freely soluble	sparingly soluble	insoluble				CCC(=O)OCC(=O)[C@@]1(OC(=O)CC)[C@@H](C)C[C@H]2[C@@H]3CCC4=CC(=O)C=C[C@]4(C)[C@@]3(F)[C@@H](O)C[C@@]21C [Betamethasone dipropionate, 9-fluoro-11β, 17,21-trihydroxy-16β-methylpregna-1,4-diene-3,20-dione 17,21-dipropionate]
freely soluble	soluble	practically insoluble	slightly soluble	freely soluble	slightly soluble	CCCCC(=O)O[C@]1(C(=O)CO)[C@@H](C)C[C@H]2[C@@H]3CCC4=CC(=O)C=C[C@]4(C)[C@@]3(F)[C@@H](O)C[C@@]21C [Betamethasone valerate, 9-Fluoro-11β, 17,21-trihydroxy-16β-methylpregna-1,4-diene-3,20-dione 17-valerate]
